This note sets out measurements from US20230141863A1, “Small Molecule Inhibitors Targeting the Sodium Channel Tamoxifen Receptor and Uses Thereof” (Northwestern University, priority 2021, published 2023).

pIC50: −log10 of the molar value. “Also recorded” adds a separate entry of the source. Like-named read-outs stand apart in the source and are kept apart here.

One test relates to DRG action potentials. Nature of the test: Current clamp recording of cultured DRG neuron action potentials. The format is cell-based, mouse. The conditions noted are these: for pIC50: Mus musculus, DRG neuron, 2-4 minutes of extracellular drug treatment. The text has this:
FIG. 4. N-desmethyl tamoxifen inhibits DRG neuronal transmission. A) Exemplar action potentials recorded from an isolated DRG neuron in control and ND-Tam-treated conditions using a 1 second, 80 pA injection of current. After the experiment was complete, drug was washed out of the bath for five minutes and recovery from inhibition was retested. Consistent with previous reports, the resting membrane potential of the DRG neurons was −53.4±5 mV (Error is equal to S.D., n=109) (PMID: 8052416). B, C) The potency of ND-Tam inhibition on DRG action potential frequency and peak amplitude. Open symbols represent responses from individual cells while filled symbols represent average response per concentration. Error is equal to S.E.M. and the number of cells tested per treatment group is indicated within the parentheses. D, E) A comparison of the potency of cannabidiol (CBD) and carbamazepine (CBZ) inhibition on action potential frequency and peak amplitude. As done previously, drug concentration-INa inhibition relationships were fit to the Hill equation. Open symbols represent responses from individual cells while filled symbols represent average response per concentration. Error is equal to S.E.M. and the number of cells tested per treatment group is indicated within the parentheses.
FIG. 10. N-desmethyl tamoxifen inhibits spontaneous action potentials in sensory neurons. A) Exemplar spontaneous action potentials, recorded from a DRG neuron without injecting current, inhibited by 100 nM N-desmethyl tamoxifen. B) Morphology of a single spontaneous action potential in DRG neuron C) Inhibition of spontaneous action potential frequency by 100 nM ND-Tam (P=0.04). Open symbols represent responses from individual cells and filled symbols represent the average response. Error is equal to S.E.M. from 6 spontaneously firing DRG neurons.
DRG neurons act as a filter to electrical information from the periphery, required for the perception of pain, generated by several types of ion channels, including Navs. For that reason, the inventors compared the pharmacology of ND-Tam against cultured DRG action potentials recorded using current clamp (FIG. 4A). The inventors then compared DRG action potential frequency and amplitude before and after 2-4 minutes of extracellular drug treatment (FIG. 4A-C, FIG. 14). […] After exchanging the drug for control saline for 2 minutes, ND-Tam inhibition of action potential frequency and peak amplitude was persistent (FIG. 4A), which is consistent with the observed slow dissociation of the drug with sodium channels (FIG. 1B, D).
Dorsal root ganglia were isolated using a modified version of the previously described protocol (PMID: 26864470). All animal procedures were approved by the Institutional Animal Care and Use Committee at the Feinberg Medical School, Northwestern University. The spinal columns of 4-6-week-old […] or Nav1.8-Tomato mice (Nav1.8-Td) were removed and DRG neurons from all spinal levels were isolated for primary culture (PMID: 33827672, PMID: 31351964). The collected DRGs, containing both neuronal and non-neuronal cells, were acutely dissociated in DMEM with collagenase IV (2 mg/mL) for 30 minutes, followed by papain (25 U/mL) for 30 minutes. The cells were then triturated, filtered through a 40 μm cell strainer to remove non-dissociated cells, and washed with DMEM. […]

Test [1] relates to mice with knee hyperalgesia post DMM surgery. Nature of the test: In vivo osteoarthritis pain model (DMM), knee hyperalgesia after intra-articular injection. The arrangement: species or system mouse.
The test system of test [2] is T1, endogenous voltage-gated sodium channels expressed in murine DRG neurons.
T1 construct: other: DRG neurons, −40 mV holding potential
In words: Whole cell voltage clamp of endogenous sodium currents (INa) in cultured DRG sensory neurons. The test is classed as cell-based, mouse. The conditions noted are these: −40 mV holding potential, read-out: ND-Tam potency against DRG INa (IC50).

For test [3], the system named is T2, endogenous voltage-gated sodium channels expressed in murine DRG neurons.
T2 construct: other: waiting for 5 minutes after removal; ND-Tam potency against DRG INa (IC50); other: DRG neurons, −60 mV holding potential; other: 3 μM ND-Tam treatment; other: DR
The description is as above. To be noted: −60 mV holding potential, read-out: ND-Tam potency against DRG INa (IC50). The format is cell-based, mouse.

Broadly, the pIC50 is −log10 of the IC50, conventionally taken in molar units. For the compound `CC/C(=C(\c1ccccc1)c1ccc(OCCNC)cc1)c1ccccc1` [ND-Tam, 2-[4-[(Z)-1,2-diphenylbut-1-enyl]phenoxy]-N-methylethanamine], the “potency against action potential frequency and peak amplitude compared with CBZ and CBD (in words)” value in the test on DRG action potentials was “more potent inhibitor of DRG action potential frequency and peak amplitude than CBZ and CBD”. For the same compound, in the test with DRG action potentials (100 nM, three-minute extracellular application, n=6, P=0.04), the “reduction of the frequency of spontaneous sensory neuron action potentials” value stood at 91%. Moreover, the negative-log IC50 (pIC50) in the test on DRG action potentials (80 pA of injected current, read-out: IC50 against action potential peak amplitude) was 5.89; in the test on DRG action potentials (elicited by 80 pA of injected current, read-out: IC50 against action potential firing frequency) it was 6.92; in test [2], 8.41; in test [3], 6.95. Also, the “inhibition of action potential frequency and peak amplitude after washout (in words)” value in the test with DRG action potentials (after exchanging the drug for control saline for 2 minutes) is reported as “persistent”. Besides, in test [1] (50 μM (~0.002 mg/kg) intra-articular, vehicle 50% EtOH, 30 minutes after injection, P=0.008), the “knee hyperalgesia versus vehicle (in words)” value is on record as “rapidly inhibited knee hyperalgesia pain compared to injection of vehicle; also recorded: provided relief from hyperalgesia compared to vehicle”. Further, in test [1] (50 μM intra-articular, 0-3 hours after injection), the “area under the curve analysis of withdrawal thresholds (in words)” value is “performs similar to CBD and to lidocaine over time”. In addition, in test [1] (50 μM intra-articular, vehicle 0.1% DMSO, 30 minutes after injection), the “knee hyperalgesia versus vehicle, direct comparison study (in words)” value is “effectively inhibited knee hyperalgesia”. Besides, the “knee withdrawal threshold versus vehicle control (in words)” value in test [1] (50 μM intra-articular, vehicle 0.1% DMSO, through 3 hours after injection) was “remained elevated compared to vehicle control through 3 hours after injection”.
